Key:
AURKB (Aurora B) = AURKB (Aurora B) (Homo sapiens, UniProt Q96GD4); test: High-throughput kinase assay; assay type: biochemical; details: read-out: Percent inhibition of kinase activity in vitro, AURKB (Aurora B); for inhibition at 0.1 µM: 100 nM; for inhibition at 0.5 µM: 500 nM
Description: (§1) Screening of Compounds 1-4 against several kinases identified two prominent targets of these compounds as the Aurora A kinase and calcium dependent protein kinase C isoforms α, βI, βII and […] (Tables 1 to 3). IC50s for these two targets were obtained by plotting inhibition levels at 500 nM, 100 nM, 50 nM and 10 nM (FIG. 3). These kinases are directly involved in pathways controlling cell differentiation programs, metastasis signaling, as well as EMT and CSC programming and their overexpression was reported to predict decreased metastasis-free survival.

PRKCI (PKC iota) = target: T1, PRKCI (PKC iota) (Homo sapiens, UniProt P41743); test: High-throughput kinase assay; assay type: biochemical; details: 50 nM; read-out: Percent inhibition of kinase activity in vitro, PRKCI (PKC iota)
T1 sequence (P41743 1-596): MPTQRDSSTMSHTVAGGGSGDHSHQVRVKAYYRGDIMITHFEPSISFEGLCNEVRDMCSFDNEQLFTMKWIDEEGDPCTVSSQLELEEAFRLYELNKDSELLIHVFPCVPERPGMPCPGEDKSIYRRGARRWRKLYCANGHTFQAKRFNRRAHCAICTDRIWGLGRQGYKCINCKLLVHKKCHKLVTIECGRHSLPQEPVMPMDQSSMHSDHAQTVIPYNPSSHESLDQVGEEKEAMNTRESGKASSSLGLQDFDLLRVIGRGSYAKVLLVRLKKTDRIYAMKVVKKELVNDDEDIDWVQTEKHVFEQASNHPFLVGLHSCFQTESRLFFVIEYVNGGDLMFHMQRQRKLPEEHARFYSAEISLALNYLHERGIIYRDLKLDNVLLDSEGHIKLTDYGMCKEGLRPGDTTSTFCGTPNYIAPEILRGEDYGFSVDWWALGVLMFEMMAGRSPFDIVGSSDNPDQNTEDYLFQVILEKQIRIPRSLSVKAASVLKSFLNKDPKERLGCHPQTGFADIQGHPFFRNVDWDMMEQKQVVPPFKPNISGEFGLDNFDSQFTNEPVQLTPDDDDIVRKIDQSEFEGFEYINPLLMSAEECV
Description: as §1

PRKCB1 (PKC beta I) = PRKCB1 (PKC beta I) (Homo sapiens, UniProt P05771); test: High-throughput kinase assay; assay type: biochemical; details: 50 nM; read-out: Percent inhibition of kinase activity in vitro, PRKCB1 (PKC beta I)
PRKCB1 (PKC beta I), sequence (P05771 whole entry): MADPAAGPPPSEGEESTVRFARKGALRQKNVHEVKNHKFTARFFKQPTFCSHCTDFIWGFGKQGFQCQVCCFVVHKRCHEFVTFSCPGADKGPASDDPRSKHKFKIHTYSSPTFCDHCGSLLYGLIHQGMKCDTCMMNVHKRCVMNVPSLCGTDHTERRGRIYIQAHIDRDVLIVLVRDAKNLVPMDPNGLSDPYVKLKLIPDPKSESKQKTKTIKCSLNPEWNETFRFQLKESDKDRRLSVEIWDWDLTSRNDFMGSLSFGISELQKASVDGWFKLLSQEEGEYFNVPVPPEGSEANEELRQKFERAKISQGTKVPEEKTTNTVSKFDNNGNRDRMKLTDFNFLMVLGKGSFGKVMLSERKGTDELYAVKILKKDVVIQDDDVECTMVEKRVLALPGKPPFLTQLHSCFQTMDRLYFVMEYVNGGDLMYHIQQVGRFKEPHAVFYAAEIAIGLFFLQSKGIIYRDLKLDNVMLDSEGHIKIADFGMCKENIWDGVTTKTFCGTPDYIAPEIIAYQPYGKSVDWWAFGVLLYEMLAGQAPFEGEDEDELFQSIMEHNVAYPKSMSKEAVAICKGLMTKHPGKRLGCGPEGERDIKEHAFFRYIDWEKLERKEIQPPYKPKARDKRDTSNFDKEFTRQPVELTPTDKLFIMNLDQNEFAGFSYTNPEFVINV
Description: as §1

PRKCB2 (PKC beta II) = PRKCB2 (PKC beta II) (Homo sapiens, UniProt P05771); test: High-throughput kinase assay; assay type: biochemical; details: 50 nM; read-out: Percent inhibition of kinase activity in vitro, PRKCB2 (PKC beta II)
PRKCB2 (PKC beta II), sequence (P05771 1-673 isoform P05771-2): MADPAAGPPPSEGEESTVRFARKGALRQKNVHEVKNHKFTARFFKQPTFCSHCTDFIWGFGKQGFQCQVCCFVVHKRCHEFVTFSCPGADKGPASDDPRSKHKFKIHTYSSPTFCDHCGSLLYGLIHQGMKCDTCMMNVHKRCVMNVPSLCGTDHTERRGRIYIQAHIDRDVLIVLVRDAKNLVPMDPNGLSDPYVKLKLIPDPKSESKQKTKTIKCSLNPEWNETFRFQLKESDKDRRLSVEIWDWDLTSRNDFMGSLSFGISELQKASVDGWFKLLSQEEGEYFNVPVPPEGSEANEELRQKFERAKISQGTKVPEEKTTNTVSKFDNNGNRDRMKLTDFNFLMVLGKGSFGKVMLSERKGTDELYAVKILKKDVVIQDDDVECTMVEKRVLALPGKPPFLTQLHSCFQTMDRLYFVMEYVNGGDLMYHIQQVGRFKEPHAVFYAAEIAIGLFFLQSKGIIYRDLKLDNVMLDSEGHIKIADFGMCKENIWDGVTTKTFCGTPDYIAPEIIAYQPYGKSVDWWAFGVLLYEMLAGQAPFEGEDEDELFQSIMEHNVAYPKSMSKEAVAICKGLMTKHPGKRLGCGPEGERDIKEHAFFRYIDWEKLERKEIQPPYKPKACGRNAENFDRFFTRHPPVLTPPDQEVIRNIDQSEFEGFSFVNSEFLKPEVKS
Description: as §1

PDGFRA (PDGFR alpha) = PDGFRA (PDGFR alpha) (Homo sapiens, UniProt P16234); test: High-throughput kinase assay; assay type: biochemical; details: read-out: Percent inhibition of kinase activity in vitro, PDGFRA (PDGFR alpha); for inhibition at 0.1 µM: 100 nM; for inhibition at 0.5 µM: 500 nM
PDGFRA (PDGFR alpha), sequence (P16234 24-1089): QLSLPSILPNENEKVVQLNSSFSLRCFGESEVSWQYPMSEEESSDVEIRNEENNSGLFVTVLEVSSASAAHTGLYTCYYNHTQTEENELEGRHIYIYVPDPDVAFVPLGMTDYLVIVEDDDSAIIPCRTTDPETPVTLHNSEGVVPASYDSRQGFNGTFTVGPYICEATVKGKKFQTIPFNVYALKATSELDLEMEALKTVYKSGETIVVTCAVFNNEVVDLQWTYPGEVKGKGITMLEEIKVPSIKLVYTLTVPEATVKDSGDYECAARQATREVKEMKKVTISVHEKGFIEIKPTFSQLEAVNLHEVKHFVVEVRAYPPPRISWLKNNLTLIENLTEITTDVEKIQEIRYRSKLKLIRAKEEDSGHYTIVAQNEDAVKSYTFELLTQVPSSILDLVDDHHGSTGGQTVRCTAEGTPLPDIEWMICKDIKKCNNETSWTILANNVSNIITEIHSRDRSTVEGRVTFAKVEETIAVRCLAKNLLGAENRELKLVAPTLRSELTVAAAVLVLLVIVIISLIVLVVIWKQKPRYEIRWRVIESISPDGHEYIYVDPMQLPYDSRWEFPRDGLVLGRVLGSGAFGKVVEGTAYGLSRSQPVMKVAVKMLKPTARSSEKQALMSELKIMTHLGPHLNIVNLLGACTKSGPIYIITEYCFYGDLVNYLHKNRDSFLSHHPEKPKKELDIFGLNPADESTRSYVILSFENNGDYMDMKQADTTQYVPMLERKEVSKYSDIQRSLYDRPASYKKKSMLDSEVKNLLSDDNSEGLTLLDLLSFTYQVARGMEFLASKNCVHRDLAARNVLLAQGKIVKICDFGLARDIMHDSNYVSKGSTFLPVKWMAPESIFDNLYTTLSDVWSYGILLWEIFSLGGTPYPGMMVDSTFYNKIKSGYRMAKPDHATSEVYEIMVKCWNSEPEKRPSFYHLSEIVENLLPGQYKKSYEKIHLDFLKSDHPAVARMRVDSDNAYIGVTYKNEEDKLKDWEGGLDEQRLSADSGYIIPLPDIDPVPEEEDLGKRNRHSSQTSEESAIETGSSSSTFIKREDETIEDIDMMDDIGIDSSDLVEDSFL
Description: as §1

PRKCE (PKC epsilon) = target: T2, PRKCE (PKC epsilon) (Homo sapiens, UniProt Q02156); test: High-throughput kinase assay; assay type: biochemical; details: 50 nM; read-out: Percent inhibition of kinase activity in vitro, PRKCE (PKC epsilon)
T2 sequence (Q02156 1-737): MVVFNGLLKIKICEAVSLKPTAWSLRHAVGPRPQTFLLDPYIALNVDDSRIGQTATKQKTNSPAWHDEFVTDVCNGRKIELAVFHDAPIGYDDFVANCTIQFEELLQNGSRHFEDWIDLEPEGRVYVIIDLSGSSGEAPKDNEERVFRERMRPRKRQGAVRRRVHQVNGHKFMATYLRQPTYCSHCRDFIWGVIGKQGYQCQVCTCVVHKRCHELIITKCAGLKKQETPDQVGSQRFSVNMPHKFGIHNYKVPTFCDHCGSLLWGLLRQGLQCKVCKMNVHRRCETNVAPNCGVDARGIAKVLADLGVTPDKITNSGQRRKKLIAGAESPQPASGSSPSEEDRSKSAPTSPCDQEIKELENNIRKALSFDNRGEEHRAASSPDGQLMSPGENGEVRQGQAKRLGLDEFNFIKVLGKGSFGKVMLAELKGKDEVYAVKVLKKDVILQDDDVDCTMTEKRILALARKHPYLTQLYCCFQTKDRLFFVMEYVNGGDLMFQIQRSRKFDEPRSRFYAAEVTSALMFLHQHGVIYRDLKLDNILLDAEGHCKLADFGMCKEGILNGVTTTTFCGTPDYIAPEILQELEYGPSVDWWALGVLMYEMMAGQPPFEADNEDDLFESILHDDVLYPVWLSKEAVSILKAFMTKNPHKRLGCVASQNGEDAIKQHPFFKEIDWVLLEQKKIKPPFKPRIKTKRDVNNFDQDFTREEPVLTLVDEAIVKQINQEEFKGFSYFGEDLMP
Description: as §1

PRKCH (PKC eta) = PRKCH (PKC eta) (Homo sapiens, UniProt P24723); test: High-throughput kinase assay; assay type: biochemical; details: 50 nM; read-out: Percent inhibition of kinase activity in vitro, PRKCH (PKC eta)
PRKCH (PKC eta), sequence (P24723 whole entry): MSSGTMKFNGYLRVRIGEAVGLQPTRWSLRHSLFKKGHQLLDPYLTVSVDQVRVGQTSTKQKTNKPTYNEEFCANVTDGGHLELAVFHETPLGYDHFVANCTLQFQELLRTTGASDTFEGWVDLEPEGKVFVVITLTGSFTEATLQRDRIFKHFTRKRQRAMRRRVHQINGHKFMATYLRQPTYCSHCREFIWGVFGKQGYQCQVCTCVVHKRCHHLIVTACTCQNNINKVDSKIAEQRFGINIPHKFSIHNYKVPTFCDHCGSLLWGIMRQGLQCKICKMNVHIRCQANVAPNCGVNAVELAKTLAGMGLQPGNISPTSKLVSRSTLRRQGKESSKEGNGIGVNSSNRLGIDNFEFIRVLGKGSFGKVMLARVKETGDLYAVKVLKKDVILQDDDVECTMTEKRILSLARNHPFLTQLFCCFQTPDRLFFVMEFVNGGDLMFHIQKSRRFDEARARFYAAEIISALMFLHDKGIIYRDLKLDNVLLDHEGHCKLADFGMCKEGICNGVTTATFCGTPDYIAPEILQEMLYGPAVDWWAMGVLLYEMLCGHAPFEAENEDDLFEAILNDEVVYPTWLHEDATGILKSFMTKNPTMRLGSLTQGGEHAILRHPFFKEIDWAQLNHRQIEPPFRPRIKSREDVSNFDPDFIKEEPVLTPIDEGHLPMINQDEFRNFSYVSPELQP
Description: as §1

cell mobility = test: Live cell locomotion assay; assay type: cell-based; details: moderate doses; 10 ng/mL EGF stimulation
Description: Cells were seeded at very low density on multi-well chambered coverglass (LabTek, Rochester, N.Y., USA). After starving, cells were stimulated with 10 ng/mL EGF and plated on a heated humidified stage supplied with 5% CO2. Phase contrast time-lapse images were captured every five minutes for three hours by optimized Nipkow spinning disk confocal microscope (WaveFx spinning disk, Quorum Technologies Inc, Guelph, ON, Canada). Cell motility was measured by tracing the cell periphery manually using Volocity software (Perkin Elmer, Waltham, Mass., USA).
To further confirm Compound 1's anti-metastatic potential, we conducted a live cell locomotion assay to quantify cell movement speed.

AURKB (Aurora B), sequence (Q96GD4 whole entry, canonical isoform): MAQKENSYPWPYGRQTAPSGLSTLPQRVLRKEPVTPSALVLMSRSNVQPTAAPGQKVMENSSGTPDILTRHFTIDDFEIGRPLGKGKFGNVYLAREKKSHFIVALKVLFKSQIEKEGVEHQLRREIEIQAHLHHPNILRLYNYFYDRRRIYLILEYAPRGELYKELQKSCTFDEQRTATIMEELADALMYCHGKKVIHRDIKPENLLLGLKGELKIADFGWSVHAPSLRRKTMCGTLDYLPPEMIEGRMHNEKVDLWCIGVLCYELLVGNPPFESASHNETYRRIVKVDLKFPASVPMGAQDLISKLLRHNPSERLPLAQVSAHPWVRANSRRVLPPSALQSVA

| Structure (SMILES) | inhibition at 0.1 µM (AURKB (Aurora B)) [%] | inhibition at 0.5 µM (AURKB (Aurora B)) [%] | inhibition at 0.05 µM (PRKCI (PKC iota)) [%] | inhibition at 0.05 µM (PRKCB1 (PKC beta I)) [%] | inhibition at 0.05 µM (PRKCB2 (PKC beta II)) [%] | inhibition at 0.1 µM (PDGFRA (PDGFR alpha)) [%] | inhibition at 0.5 µM (PDGFRA (PDGFR alpha)) [%] | inhibition at 0.05 µM (PRKCE (PKC epsilon)) [%] | inhibition at 0.05 µM (PRKCH (PKC eta)) [%] | limitation of the rate of cell mobility (cell mobility) |
| --- | --- | --- | --- | --- | --- | --- | --- | --- | --- | --- |
| O=c1c2ccccc2[se]n1-c1nc(NC2CCCCC2)c2nc[nH]c2n1 [Compound 1] | 12 | 25 | 4 | 59 | 62 | 0 | 3 | 6 | 0 | 2-3 fold |
| O=c1c2ccccc2[se]n1-c1nc(NC2CC[Se]C2)c2nc[nH]c2n1 (stereo not drawn) [Compound 2] | 19 | 13 |  |  |  |  | 4 |  |  |  |
| C[C@@H]1C(Nc2nc(-n3[se]c4ccccc4c3=O)nc3[nH]cnc23)C[C@H]2C[C@@H]1C2(C)C (stereo partly drawn) [Compound 3] | 24 | 19 |  |  |  |  | 5 |  |  |  |
| O=c1c2ccccc2[se]n1-c1nc(N[C@H]2CC[Se]C2)c2nc[nH]c2n1 [Compound 4] | 14 |  | 7 | 95 | 95 | 1 |  | 5 | 6 |  |
| O=C1c2ccccc2CN1c1nc(NC2CCCCC2)c2nc[nH]c2n1 [SLLN-6C, reference compound] | 10 |  | 7 | 5 | 5 | 0 |  | 4 | 0 |  |

Source: patent US10711002B2, “Purine compounds and method for the treatment of cancer” (THE ROYAL INSTITUTION FOR THE ADVANCEMENT OF …, priority 2016, dated 2020)
